{"source": "paper PMC9202019", "about": "(ACS Omega, 2022)", "key": {"CYP1A2 [1]": {"biological_target": "T1, CYP1A2 (Homo sapiens, UniProt P05177)", "T1 sequence (P05177 1-516)": "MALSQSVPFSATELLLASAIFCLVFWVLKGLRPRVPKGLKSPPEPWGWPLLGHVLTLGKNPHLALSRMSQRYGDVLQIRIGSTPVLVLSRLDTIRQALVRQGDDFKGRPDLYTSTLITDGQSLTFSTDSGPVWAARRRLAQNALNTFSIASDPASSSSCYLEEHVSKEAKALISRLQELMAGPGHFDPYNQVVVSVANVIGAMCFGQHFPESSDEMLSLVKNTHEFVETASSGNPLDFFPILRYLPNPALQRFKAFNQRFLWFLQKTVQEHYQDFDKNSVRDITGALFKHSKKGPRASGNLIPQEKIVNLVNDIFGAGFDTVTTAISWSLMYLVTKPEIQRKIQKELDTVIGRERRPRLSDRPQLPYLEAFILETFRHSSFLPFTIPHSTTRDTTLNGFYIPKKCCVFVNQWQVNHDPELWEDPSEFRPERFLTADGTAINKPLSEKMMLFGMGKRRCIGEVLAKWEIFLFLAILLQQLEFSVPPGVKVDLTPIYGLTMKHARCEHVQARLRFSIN", "details": "HLM; cited from earlier work"}, "CYP1A2 [2]": {"biological_target": "T1, CYP1A2", "details": "read-out: IC50 for CYP1A2-mediated phenacetin O-deethylation in HLM; cited from earlier work"}, "[3]": {"details": "humans; cited from earlier work"}, "[4]": {"assay": "Pharmacokinetics of caffeine alone and with pinocembrin in rats", "format": "in vivo", "details": "male, Wistar, rat, plasma, po, 15 mg/kg"}, "CYP1A2 [5]": {"test_system": "CYP1A2", "details": "cited from earlier work"}, "CYP1A2 [6]": {"biological_target": "T2, CYP1A2 (Rattus norvegicus, UniProt P04799)", "T2 sequence (P04799 1-513)": "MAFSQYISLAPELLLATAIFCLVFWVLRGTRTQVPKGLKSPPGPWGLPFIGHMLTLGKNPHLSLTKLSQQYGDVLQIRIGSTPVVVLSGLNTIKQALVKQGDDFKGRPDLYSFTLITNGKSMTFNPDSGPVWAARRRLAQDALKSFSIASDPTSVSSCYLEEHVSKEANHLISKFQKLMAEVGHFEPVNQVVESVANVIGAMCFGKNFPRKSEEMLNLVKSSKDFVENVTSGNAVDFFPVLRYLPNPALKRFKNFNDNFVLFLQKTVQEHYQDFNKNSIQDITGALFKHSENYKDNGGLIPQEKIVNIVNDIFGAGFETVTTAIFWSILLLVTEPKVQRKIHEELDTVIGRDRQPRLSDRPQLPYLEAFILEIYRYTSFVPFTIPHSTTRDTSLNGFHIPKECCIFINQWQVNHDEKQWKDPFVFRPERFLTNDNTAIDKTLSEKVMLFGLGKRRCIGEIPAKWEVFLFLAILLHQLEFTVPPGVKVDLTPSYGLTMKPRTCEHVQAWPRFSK", "details": "read-out: IC50 for CYP1A2 in RLM; cited from earlier work"}, "[7]": {"format": "in vivo, Wistar rats", "details": "male, Wistar, rat, plasma, po, 4 mg/kg; for AUC(0-t): AUC0–t, tacrine 4 mg/kg oral alone (group III); for half-life: T1/2, tacrine 4 mg/kg oral alone (group III)"}, "CYP1A2 [8]": {"biological_target": "T1, CYP1A2", "details": "cited from earlier work"}, "CYP1A2 [9]": {"biological_target": "T1, CYP1A2", "details": "HLM 0.3 mg/mL, phenacetin 1–1500 μM, 30 min"}, "[10]": {"assay": "Liver distribution of pinocembrin after intravenous dosing in rats", "format": "in vivo", "details": "male, Wistar, rat, 10 mg/kg"}, "CYP1A2 [11]": {"biological_target": "T2, CYP1A2", "assay": "CYP1A2-catalyzed phenacetin O-deethylation in RLM", "format": "in vitro ADME"}, "CYP2C19": {"test_system": "CYP2C19", "details": "read-out: IC50 for CYP2C19 inhibition; cited from earlier work"}, "CYP2C9": {"test_system": "CYP2C9", "details": "read-out: IC50 for CYP2C9 inhibition; cited from earlier work"}, "[12]": {"assay": "Stability of pinocembrin in HLM", "format": "in vitro ADME, human", "details": "pinocembrin 5 μM, HLM 0.3 mg/mL, 0-30 min, 37 °C"}, "[13]": {"assay": "Stability of pinocembrin in RLM", "format": "in vitro ADME, rat", "details": "protocol as for HLM"}, "CYP3A4": {"test_system": "CYP3A4", "details": "read-out: IC50 for CYP3A4 inhibition; cited from earlier work"}, "[14]": {"details": "humans; cited from earlier work", "remark": "listed apart in the source"}}, "note": "Values joined by “and” are separate entries in the source; they are usually repeats but may differ in a detail not shown here. Equal entries are not always repeated. Where two headings read alike, the source gives them in different places.", "data": [{"compound": "O=c1cc(-c2ccc(O)c(O)c2)oc2cc(O)cc(O)c12", "note": "[Luteolin]", "values": [{"measurement": "type of CYP1A2 inhibition", "setting": "CYP1A2 [1]", "result": "competitively"}]}, {"compound": "CS(=O)(=O)c1ccc(C2=C(c3ccccc3)C(=O)OC2)cc1", "note": "[Rofecoxib]", "values": [{"measurement": "IC50", "setting": "CYP1A2 [2]", "result": 4.2, "unit": "µM"}, {"measurement": "increase in plasma concentration of the CYP1A2 substrate tizanidine", "setting": "[3]", "result": 13.6, "unit": "fold"}]}, {"compound": "Cn1c(=O)c2c(ncn2C)n(C)c1=O", "note": "[caffeine]", "values": [{"measurement": "AUC(0-t)", "setting": "[4]; AUC0–t, caffeine 15 mg/kg oral alone (group I)", "result": "2840 ± 141", "unit": "ng·h/mL"}, {"measurement": "half-life", "setting": "[4]; T1/2, caffeine 15 mg/kg oral alone (group I)", "result": "1.1 ± 0.1", "unit": "h"}, {"measurement": "portion of the drug metabolized by CYP1A2", "setting": "CYP1A2 [5]", "result": "> 95", "unit": "%"}]}, {"compound": "Cc1nc2c([nH]1)c(=O)n(C)c(=O)n2Cc1ccco1", "note": "[furafylline]", "values": [{"measurement": "IC50", "setting": "CYP1A2 [6]", "result": 20.8, "unit": "µM"}]}, {"compound": "Nc1c2c(nc3ccccc13)CCCC2O", "note": "(stereo not drawn) [hydroxytacrine, 1-hydroxytacrine]", "values": [{"measurement": "AUC(0-t)", "setting": "[7]", "result": "907 ± 129", "unit": "ng·h/mL"}, {"measurement": "half-life", "setting": "[7]", "result": "1.5 ± 0.3", "unit": "h"}]}, {"compound": "CC(C)C1=Cc2ccc3c(c2C(=O)C1=O)CCCC3(C)C", "note": "[miltirone]", "values": [{"measurement": "type of CYP1A2 inhibition", "setting": "CYP1A2 [8]; kinetic analysis", "result": "mixed-type"}, {"measurement": "IC50", "setting": "CYP1A2 [8]; read-out: IC50 for CYP1A2 in HLM, HLM", "result": 1.73, "unit": "µM"}]}, {"compound": "CCOc1ccc(NC(C)=O)cc1", "note": "[phenacetin]", "values": [{"measurement": "maximum velocity of the uninhibited reaction (Vmax) for CYP1A2-catalyzed phenacetin O-deethylation", "setting": "CYP1A2 [9]", "result": "1584 ± 12 pmol/min/mg of protein"}]}, {"compound": "O=C1C[C@@H](c2ccccc2)Oc2cc(O)cc(O)c21", "note": "[pinocembrin]", "values": [{"measurement": "Kp", "setting": "[10]; liver and plasma", "result": "1.8 to 3.8"}, {"measurement": "concentration at 5 min", "setting": "[10]; liver", "result": 3680, "unit": "ng/g"}, {"measurement": "concentration at 15 min", "setting": "[10]; liver", "result": 2380, "unit": "ng/g"}, {"measurement": "concentration at 5 min", "setting": "[10]; plasma", "result": "2030 ng/mL and 7.9 µM"}, {"measurement": "concentration at 15 min", "setting": "[10]; plasma", "result": 621, "unit": "ng/mL"}, {"measurement": "IC50", "setting": "CYP1A2 [11]", "result": "3.11 ± 0.09", "unit": "µM"}, {"measurement": "IC50", "setting": "CYP2C19", "result": 22, "unit": "µM"}, {"measurement": "IC50", "setting": "CYP2C9", "result": 13, "unit": "µM"}, {"measurement": "Stability of pinocembrin in HLM (amount remaining vs 0 min)", "setting": "[12]", "result": "stable"}, {"measurement": "Stability of pinocembrin in RLM (amount remaining vs 0 min)", "setting": "[13]", "result": "stable"}, {"measurement": "IC50", "setting": "CYP3A4", "result": 28, "unit": "µM"}]}, {"compound": "Nc1c2c(nc3ccccc13)CCCC2", "note": "[tacrine]", "values": [{"measurement": "contribution of CYP1A2 to metabolism", "setting": "CYP1A2 [5]", "result": "> 90", "unit": "%"}, {"measurement": "AUC(0-t)", "setting": "[7]", "result": "142 ± 13", "unit": "ng·h/mL"}, {"measurement": "half-life", "setting": "[7]", "result": "1.7 ± 0.2", "unit": "h"}]}, {"compound": "c1ccc2[nH]c(-c3cscn3)nc2c1", "note": "[thiabendazole]", "values": [{"measurement": "enhancement in the plasma level of caffeine", "setting": "[14]", "result": 1.6, "unit": "fold"}]}]}
